In general, inhibition refers to the drop in the measured response relative to a control, in per cent.

For one data set, the target named is BACE1 enzyme (Homo sapiens (Human), UniProt P56817). The data set can be described thus: BACE1 efficacy assay (FRET-based, commercial BACE1 kit). It is filed as biochemical. The settings on record: test compound 10 μM, 3 nM enzyme, 250 nM substrate. On the procedure: The efficacy assay was performed as a FRET-based assay using a commercially available BACE1 kit (Life Technologies, P2985). 2 μl test compound at 10 μM (final concentration) and 15 μl BACE1 enzyme from the kit (final concentration 3 nM) were preincubated for 15 minutes at room temperature before addition of 15 μl of substrate from the kit (250 nM final concentration) and incubated for additional 90 minutes at room temperature. The assay plate was subsequently read in a Pherastar (Ex540/Em590). […] The efficacy of the test compounds was evaluated at 10 μM (final concentration) and defined as the percent inhibition of the enzyme activity using the equation % inhibition=100%−normalized enzyme activity in percent.
Chain of BACE1 enzyme (P56817 46-501): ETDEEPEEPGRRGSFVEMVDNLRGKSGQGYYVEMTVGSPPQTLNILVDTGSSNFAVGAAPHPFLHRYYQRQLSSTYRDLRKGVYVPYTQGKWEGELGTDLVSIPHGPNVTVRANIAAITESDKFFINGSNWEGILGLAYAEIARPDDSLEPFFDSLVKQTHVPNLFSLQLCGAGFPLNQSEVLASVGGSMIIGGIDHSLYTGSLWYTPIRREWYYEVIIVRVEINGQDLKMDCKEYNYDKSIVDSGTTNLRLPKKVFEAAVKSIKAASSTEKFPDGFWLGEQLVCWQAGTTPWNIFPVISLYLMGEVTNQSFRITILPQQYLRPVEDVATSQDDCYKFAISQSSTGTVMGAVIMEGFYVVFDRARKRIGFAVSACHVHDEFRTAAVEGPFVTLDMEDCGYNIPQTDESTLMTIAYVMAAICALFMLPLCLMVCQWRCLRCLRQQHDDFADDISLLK

Data set [1] is described as follows: Brain and plasma exposure in rats after oral dosing (DMPK analysis). Type of data set: in vivo. The settings on record: male, Sprague Dawley, rat, 3 hours post dose. On the procedure:
Young adult Male Sprague Dawley rats of approximately 250 g weight were purchased from Charles River and received 0-30 mg/kg of vehicle (10% HP betaCD+1M MeSO4, pH 2.5) or test compounds (dissolved in vehicle) only by oral gavage (p.o). The compounds are dosed at a volume of 5 ml/kg. Cohorts of 5-10 animals were established for each treatment condition.
At T=180 minutes after initial dosing the animals were stunned and decapitated with a guillotine. Trunk-blood was sampled in EDTA coated tubes after decapitation of the animal. The blood was centrifuged at 2200G at 4° C. for 15 minutes and the plasma was collected and frozen at −80° C. The blood was aliquoted for Aβ ELISA and DMPK analysis. Immediately following sacrifice, the brain was extracted and split into 2 halves. The right hemibrains were snap frozen on dry ice and stored at −80° C. The left half was dissected; with the front forebrain taken for Aβ ELISA and the remainder used for DMPK analysis. These samples were also snap frozen on dry ice and stored at −80° C. until use for analysis.
Compounds 1, 5, 17, 18, and 24 were administered at doses of 10 or 30 mg/kg p.o. and brain and plasma samples were collected at 3 hours post dose and the following exposures and reductions in Aβ40 levels were measured as described above.

Where [2] appears, read: 30 mg/kg p.o., brain, read-out: Exp, brain.
[3] abbreviates: 30 mg/kg p.o., plasma, read-out: Exp, plasma.

The structures appear in SMILES notation. Counter-ions that a name gives are not always drawn. Like-named read-outs stand apart in the source and are kept apart here.

`C[C@]1(F)CC(F)(F)[C@@](C)(c2cc(NC(=O)c3ccc(F)cn3)ccc2F)N=C1N` [Compound 1, N-(3-((2R,5S)-6-amino-3,3,5-trifluoro-2,5-dimethyl-2,3,4,5-tetrahydropyridin-2-yl)-4-fluorophenyl)-5-fluoropicolinamide]: on BACE1 enzyme, the inhibition at 10 µM came out at 104%. The concentration at 3 h in data set [1] (setting [2]) stood at 2190 ng/g; in data set [1] (setting [3]), 3540 ng/g.
Take `COc1cnc(C(=O)Nc2ccc(F)c([C@@]3(C)N=C(N)[C@@](C)(F)CC3(F)F)c2)cn1` [Compound 5, N-(3-((2R,5S)-6-amino-3,3,5-trifluoro-2,5-dimethyl-2,3,4,5-tetrahydropyridin-2-yl)-4-fluorophenyl)-5-methoxypyrazine-2-carboxamide]: the inhibition at 10 µM against BACE1 enzyme is 96%. Moreover, the concentration at 3 h was 174 ng/g in data set [1] (10 mg/kg p.o., brain, read-out: Exp, brain); 137 ng/g in data set [1] (10 mg/kg p.o., plasma, read-out: Exp, plasma); 954 ng/g in data set [1] (setting [2]); 632 ng/g in data set [1] (setting [3]).
For the compound `COc1ccc(C(=O)Nc2ccc(F)c([C@@]3(C)N=C(N)[C@@](C)(F)CC3(F)F)c2)nc1` [Compound 17, N-(3-((2R,5S)-6-amino-3,3,5-trifluoro-2,5-dimethyl-2,3,4,5-tetrahydropyridin-2-yl)-4-fluorophenyl)-5-methoxypicolinamide], the inhibition at 10 µM on BACE1 enzyme worked out at 101%. Besides, the concentration at 3 h in data set [1] (setting [2]) was found to be 1220 ng/g; in data set [1] (setting [3]), 828 ng/g.
As to `C[C@@]1(F)CC(F)(F)[C@@](C)(c2cc(NC(=O)c3ccc(Cl)cn3)ccc2F)N=C1N` [Compound 33, N-(3-((2R,5R)-6-amino-3,3,5-trifluoro-2,5-dimethyl-2,3,4,5-tetrahydropyridin-2-yl)-4-fluorophenyl)-5-chloropicolinamide], at BACE1 enzyme, the inhibition at 10 µM came to 103%.
The same measure, in the same setting: under `Cc1nc(C(=O)Nc2ccc(F)c([C@@]3(C)N=C(N)[C@](C)(F)CC3(F)F)c2)co1` [Compound 34, N-(3-((2R,5R)-6-amino-3,3,5-trifluoro-2,5-dimethyl-2,3,4,5-tetrahydropyridin-2-yl)-4-fluorophenyl)-2-methyloxazole-4-carboxamide] stands 102%; under `Cc1nc(C(=O)Nc2ccc(F)c([C@@]3(C)N=C(N)[C@](C)(F)CC3(F)F)c2)no1` [Compound 35, N-(3-((2R,5R)-6-amino-3,3,5-trifluoro-2,5-dimethyl-2,3,4,5-tetrahydropyridin-2-yl)-4-fluorophenyl)-5-methyl-1,2,4-oxadiazole-3-carboxamide], 100%; under `C[C@@]1(F)CC(F)(F)[C@@](C)(c2cc(NC(=O)c3nccs3)ccc2F)N=C1N` [Compound 36, N-(3-((2R,5R)-6-amino-3,3,5-trifluoro-2,5-dimethyl-2,3,4,5-tetrahydropyridin-2-yl)-4-fluorophenyl)thiazole-2-carboxamide], 100%.
Regarding `Cn1cc(Br)nc1C(=O)Nc1ccc(F)c([C@@]2(C)N=C(N)[C@](C)(F)CC2(F)F)c1` [Compound 37, N-(3-((2R,5R)-6-amino-3,3,5-trifluoro-2,5-dimethyl-2,3,4,5-tetrahydropyridin-2-yl)-4-fluorophenyl)-4-bromo-1-methyl-1H-imidazole-2-carboxamide], on BACE1 enzyme, the inhibition at 10 µM worked out at 104%.
On the same count and under the same terms, under `Cc1cn(C)c(C(=O)Nc2ccc(F)c([C@@]3(C)N=C(N)[C@](C)(F)CC3(F)F)c2)n1` [Compound 38, N-(3-((2R,5R)-6-amino-3,3,5-trifluoro-2,5-dimethyl-2,3,4,5-tetrahydropyridin-2-yl)-4-fluorophenyl)-1,4-dimethyl-1H-imidazole-2-carboxamide] stands 98%.
For the compound `Cn1ccc(C(=O)Nc2ccc(F)c([C@@]3(C)N=C(N)[C@](C)(F)CC3(F)F)c2)n1` [Compound 39, N-(3-((2R,5R)-6-amino-3,3,5-trifluoro-2,5-dimethyl-2,3,4,5-tetrahydropyridin-2-yl)-4-fluorophenyl)-1-methyl-1H-pyrazole-3-carboxamide], the inhibition at 10 µM at BACE1 enzyme was found to be 74%.
As for `Cc1cc(C(=O)Nc2ccc(F)c([C@@]3(C)N=C(N)[C@](C)(F)CC3(F)F)c2)on1` [Compound 40, N-(3-((2R,5R)-6-amino-3,3,5-trifluoro-2,5-dimethyl-2,3,4,5-tetrahydropyridin-2-yl)-4-fluorophenyl)-3-methylisoxazole-5-carboxamide], the inhibition at 10 µM on BACE1 enzyme was determined as 69%.
On the same count and under the same terms, under `Cc1ccc(C(=O)Nc2ccc(F)c([C@@]3(C)N=C(N)[C@](C)(F)CC3(F)F)c2)o1` [Compound 41, N-(3-((2R,5R)-6-amino-3,3,5-trifluoro-2,5-dimethyl-2,3,4,5-tetrahydropyridin-2-yl)-4-fluorophenyl)-5-methylfuran-2-carboxamide] stands 93%.
Still for that read-out and setting: as for `Cc1ncc(C(=O)Nc2ccc(F)c([C@@]3(C)N=C(N)[C@](C)(F)CC3(F)F)c2)o1` [Compound 42, N-(3-((2R,5R)-6-amino-3,3,5-trifluoro-2,5-dimethyl-2,3,4,5-tetrahydropyridin-2-yl)-4-fluorophenyl)-2-methyloxazole-5-carboxamide trifluoroacetic acid salt], the figure is 84%; as for `[2H]C([2H])([2H])Oc1ccc(C(=O)Nc2ccc(F)c([C@@]3(C)N=C(N)[C@](C)(F)CC3(F)F)c2)nc1` [Compound 43, N-(3-((2R,5R)-6-amino-3,3,5-trifluoro-2,5-dimethyl-2,3,4,5-tetrahydropyridin-2-yl)-4-fluorophenyl)-5-(methoxy-d3)picolinamide], 94%; as for `C[C@@]1(F)CC(F)(F)[C@@](C)(c2cc(NC(=O)c3ccc(Cl)cc3)ccc2F)N=C1N` [Compound 44, N-(3-((2R,5R)-6-amino-3,3,5-trifluoro-2,5-dimethyl-2,3,4,5-tetrahydropyridin-2-yl)-4-fluorophenyl)-4-chlorobenzamide], 92%.
Same read-out and setting: as for `C[C@]1(F)CC(F)(F)[C@@](C)(c2cc(NC(=O)c3ccc(OC(F)F)cn3)ccc2F)N=C1N` [Compound 45, N-(3-((2R,5S)-6-amino-3,3,5-trifluoro-2,5-dimethyl-2,3,4,5-tetrahydropyridin-2-yl)-4-fluorophenyl)-5-(difluoromethoxy)picolinamide], the figure is 103%; as for `COc1cnc(C(=O)Nc2ccc(F)c([C@@]3(C)N=C(N)[C@@](C)(F)CC3(F)F)c2)c(F)c1` [Compound 46, N-(3-((2R,5S)-6-amino-3,3,5-trifluoro-2,5-dimethyl-2,3,4,5-tetrahydropyridin-2-yl)-4-fluorophenyl)-3-fluoro-5-methoxypicolinamide], 101%; as for `Cc1nc(C(=O)Nc2ccc(F)c([C@@]3(C)N=C(N)[C@@](C)(F)CC3(F)F)c2)c(C)o1` [Compound 47, N-(3-((2R,5S)-6-amino-3,3,5-trifluoro-2,5-dimethyl-2,3,4,5-tetrahydropyridin-2-yl)-4 fluorophenyl)-2,5-dimethyloxazole-4-carboxamide], 102%.
On to `[2H]C([2H])([2H])Oc1ccc(C(=O)Nc2ccc(F)c([C@@]3(C)N=C(N)[C@@](C)(F)CC3(F)F)c2)nc1` [Compound 48], for which the inhibition at 10 µM at BACE1 enzyme was 99%.
On the same count and under the same terms, under `Cc1cc(F)cnc1C(=O)Nc1ccc(F)c([C@@]2(C)N=C(N)[C@@](C)(F)CC2(F)F)c1` [Compound 49, N-(3-((2R,5S)-6-amino-3,3,5-trifluoro-2,5-dimethyl-2,3,4,5-tetrahydropyridin-2-yl)-4-fluorophenyl)-5-fluoro-3-methylpicolinamide] stands 98%.

Values taken from patent US10004738B2, “Combination treatment comprising administration of 2-amino-3,5,5-trifluoro-3,4,5,6-tetrahydropyridines” (H. Lundbeck A/S, priority 2015, dated 2018).
